The IC50 is the concentration that inhibits the measured activity by half.

Here are results for 10 compounds from patent US9403843B2, “Cysteine protease inhibitors and uses thereof” (The Trustees of Columbia University in the City of New York, priority 2012, dated 2016).

The structures appear in SMILES notation. Read-outs that look alike come from different tables or passages of the source.

The target in test [1] is Full length porcine calpain (Sus scrofa (Pig), UniProt P35750). Description: Calpain inhibition kinetics studies (Suc-LLVY-AMC substrate). The format is biochemical. The source says: (§1) Papain is representative of a family of typically lysosomal or secreted cysteine proteases, including the human cathepsins (B, C, F, H, K, L1-2, O, S, W, Z). […] Several methods have been reported in the literature for detailed kinetic analysis of the irreversible inhibition of cysteine proteases, including Cal1. […] (SEQ ID NO: 8). Using this substrate, kinetic parameters were derived using the method of Davies and co-workers, whereby “progress curves” were initially obtained measuring product formation as a function of time and fitted to y=P∞*(1−e^(−k*x)) (FIG. 7) (Cuerrier, D. et al., J Biol Chem 2007, 282, 9600-11; herein incorporated by reference in its entirety). […] Kinetic parameters (ki, KI, ki/KI) were obtained from double reciprocal plots (FIG. 7).
Sequence of Full length porcine calpain (P35750 whole entry): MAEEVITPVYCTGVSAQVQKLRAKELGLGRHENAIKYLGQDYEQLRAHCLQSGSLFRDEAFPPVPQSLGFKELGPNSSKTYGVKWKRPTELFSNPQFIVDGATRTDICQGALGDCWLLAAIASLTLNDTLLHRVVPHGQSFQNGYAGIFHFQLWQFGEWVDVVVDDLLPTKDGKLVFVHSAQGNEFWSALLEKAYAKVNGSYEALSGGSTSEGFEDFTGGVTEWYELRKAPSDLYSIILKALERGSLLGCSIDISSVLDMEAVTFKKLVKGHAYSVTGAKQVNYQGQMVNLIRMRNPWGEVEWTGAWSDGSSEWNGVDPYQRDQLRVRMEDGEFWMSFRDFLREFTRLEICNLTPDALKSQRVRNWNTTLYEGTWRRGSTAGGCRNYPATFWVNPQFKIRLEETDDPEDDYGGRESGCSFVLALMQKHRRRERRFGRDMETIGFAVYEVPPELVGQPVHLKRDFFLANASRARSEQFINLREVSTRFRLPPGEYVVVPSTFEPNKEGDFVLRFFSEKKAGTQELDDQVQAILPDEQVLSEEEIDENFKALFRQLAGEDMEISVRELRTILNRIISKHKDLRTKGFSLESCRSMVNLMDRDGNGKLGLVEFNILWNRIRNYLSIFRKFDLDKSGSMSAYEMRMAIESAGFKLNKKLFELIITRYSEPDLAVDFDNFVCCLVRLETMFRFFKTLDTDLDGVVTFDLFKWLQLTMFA
Sequence of Full length porcine calpain (P04574 whole entry partner): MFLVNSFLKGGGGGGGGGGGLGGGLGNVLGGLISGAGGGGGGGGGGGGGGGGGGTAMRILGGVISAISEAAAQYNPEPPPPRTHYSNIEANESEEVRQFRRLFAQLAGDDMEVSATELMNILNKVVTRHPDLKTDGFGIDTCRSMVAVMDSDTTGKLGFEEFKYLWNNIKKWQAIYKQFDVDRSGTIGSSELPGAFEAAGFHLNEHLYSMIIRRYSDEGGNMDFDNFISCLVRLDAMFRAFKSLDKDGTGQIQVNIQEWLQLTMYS
(§2) Full length porcine calpain (156 nM), or papain (236 pM) was added to a solution of 100 mM NaCl, 50 mM HEPES, pH 7.6, 1 mM TCEP, 30 μM Suc-LLVY-AMC (SEQ ID NO: 8) substrate, and inhibitor (0.5 to 50 μM). Calpain reactions also contained CaCl2 (1 mM and 100 mM for porcine and rat respectively). Both substrate and inhibitors were dissolved in acetonitrile/DMSO (1:1) with the exception of E-64, dissolved in water. Organic solvent remained <2% in all reactions, and most often <1%. Reactions were carried out in microtiter 96-well plates, with 150 μL per well, 30° C., and product formation was monitored over time by fluorescence (Ex/Em 346/444 nm, with 420 nm cutoff filter). Kinetic values of kobs were determined via non-linear regression using one-phase association analysis and linear plots of 1/kobs vs. 1/[I] provided kinetic constants ki and KI.

In another test the target is papain (Carica papaya (Papaya), UniProt P00784). Put plainly: biochemical. The test is classed as biochemical.
Sequence of papain (P00784 134-345): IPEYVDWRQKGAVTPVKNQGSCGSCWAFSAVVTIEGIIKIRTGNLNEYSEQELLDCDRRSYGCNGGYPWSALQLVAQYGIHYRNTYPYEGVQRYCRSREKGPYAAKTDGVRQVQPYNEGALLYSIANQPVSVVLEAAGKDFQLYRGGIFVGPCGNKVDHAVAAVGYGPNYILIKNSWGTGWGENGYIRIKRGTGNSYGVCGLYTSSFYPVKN
Description: as §1, §2

The target of test [2] is T1, full-length human Cal1 (Homo sapiens (Human), UniProt P07384). Put plainly: Calpain inhibition FRET assay. The format is biochemical. The note with it: Table 3, 20 min incubation, FRET substrate.
T1 sequence (P07384 whole entry): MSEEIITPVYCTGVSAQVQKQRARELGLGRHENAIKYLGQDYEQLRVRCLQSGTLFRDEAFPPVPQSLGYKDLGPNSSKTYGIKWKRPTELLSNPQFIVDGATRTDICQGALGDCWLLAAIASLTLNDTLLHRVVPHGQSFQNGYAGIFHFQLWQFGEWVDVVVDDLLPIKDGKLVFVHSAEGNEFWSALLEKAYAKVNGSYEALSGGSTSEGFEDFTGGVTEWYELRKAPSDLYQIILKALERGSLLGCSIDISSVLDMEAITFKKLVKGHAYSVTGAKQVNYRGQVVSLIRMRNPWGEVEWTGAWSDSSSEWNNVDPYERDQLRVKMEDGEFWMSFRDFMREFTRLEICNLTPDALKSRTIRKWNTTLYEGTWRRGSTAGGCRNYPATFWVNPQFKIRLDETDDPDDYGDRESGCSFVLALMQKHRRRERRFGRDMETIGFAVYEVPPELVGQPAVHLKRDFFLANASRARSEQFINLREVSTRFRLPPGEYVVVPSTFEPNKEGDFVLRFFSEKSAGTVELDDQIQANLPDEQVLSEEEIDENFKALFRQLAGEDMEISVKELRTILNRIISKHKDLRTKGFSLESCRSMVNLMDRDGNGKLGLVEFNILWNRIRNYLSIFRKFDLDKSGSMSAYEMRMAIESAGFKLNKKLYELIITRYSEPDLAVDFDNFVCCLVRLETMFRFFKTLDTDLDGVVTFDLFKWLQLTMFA
T1 sequence (P04632 whole entry partner): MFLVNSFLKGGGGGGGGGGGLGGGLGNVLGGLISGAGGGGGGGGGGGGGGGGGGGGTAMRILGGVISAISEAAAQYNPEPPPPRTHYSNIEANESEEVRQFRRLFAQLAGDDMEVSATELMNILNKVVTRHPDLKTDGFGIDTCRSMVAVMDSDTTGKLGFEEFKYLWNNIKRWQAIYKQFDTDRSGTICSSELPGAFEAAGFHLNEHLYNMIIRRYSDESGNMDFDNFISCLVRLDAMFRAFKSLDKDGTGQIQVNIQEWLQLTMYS
The subject of a further test is Cal1cat vs CathB. Description: Competition assay for Cal1 vs CathB using the biotinylated epoxide probe. The settings on record: individually and in combination. The test is classed as binding, rat. The protocol:
Anti-biotin western blotting of Cal1cat (Lane 6) or CathB (Lane 7) after incubation with 27 show the expected immunoreactivity of the covalently modified proteins. […] Densitometric analysis, using means from triplicate immunoblots, was used to estimate the modification of each protein by 27 in the presence of inhibitors relative to control (Lane 1: ratio=1.0).
Cal1cat was used in place of the full length enzyme to avoid autocatalysis.
Cal1cat and CathB were pre-treated with inhibitors for 10 min, followed by a 20 min incubation with the biotinylated epoxide, 27, as illustrated in FIG. 4. […] A more quantitative estimate of selectivity was achieved by comparison of band intensities.
The appropriate inhibitor (5 μM) was pre-incubated in a mixture containing Cal1cat (2 μM), CathB (2 μM), TCEP (1 mM), and Ca^2+ (30 μM) for 10 min at 37° C. […] (5 μM) was then added and the mixture incubated an additional 20 min. The reaction was quenched with EDTA (10 μM) and samples were ran using 4-16% SDS PAGE gel, subsequently transferred to PVDF membrane and visualized by Pierce ECL (Enhanced chemiluminescent) western blotting substrate, intensity of each blot was calculated using densitometry software. Relative inhibition of each enzyme was calculated with respect to enzyme activity in the absence of inhibitor. Inhibitor preference to Cal1cat with respect to CathB, was calculated by dividing relative Cal1cat inhibition with relative CathB inhibition of that particular inhibitor.

Test [3] concerns the target T1, full-length human Cal1. Put plainly: Calpain inhibition FRET assay. The format is biochemical. The settings on record: for IC50: Table 2, approximate IC50, read-out: Cal I IC50. The protocol:
Calpain activity was measured using full-length human Cal1 in the presence of a FRET substrate. IC50 values were approximated by co-incubation of varying concentrations of the appropriate inhibitor (10, 100, 500, 1000 nM) in the presence of the FRET substrate (DABCYL)TPLK-SPPSPR-(EDANS) (SEQ ID NO: 5) and activation buffer. […] A peptide inhibitor, Z-LLY-FMK (SEQ ID NO: 6), was used as a positive control.
The Calbiochem InnoZyme activity kit was used for measuring the inhibition effect inhibitors on human erythrocyte calpain 1 activity. […] 20 μM of the FRET substrate, 10 nM of native Cal1, and 20 μM TCEP (reducing agent) were added to the reaction mixture containing assay buffer (Tris [10 mM], NaCl [100 mM], pH 7.4). Cal1 was activated by the addition of 10 μM calcium. Cleavage of the scissile bond amide bond, K-S, releases the fluorophore (EDANS) from the internal quenching molecule (DABCYL), resulting in an increase in fluorescence measured at 320 nm excitation and 480 nm emission wave lengths for 30 min. Each inhibitor was added to the reaction mixture at varying concentrations (10 nM, 100 nM, 1 μM, and 10 μM) to detect inhibition of Cal1 and reduction in fluorescence was measured by 96 well-plate reader. Approximate IC50 values of each compound were generated using linear regression within Graphpad Prism Software.

In test [4] the test system is Aβ-induced LTP impairment. Put plainly: LTP rescue test. The settings on record: assessed at 650 nM.
Description: Residual levels of potentiation were averaged during the last 5 min of LTP.
The next test concerns APP/PS1 mice. Description: Behavioral rescue assays (contextual fear memory, 2-day RAWM reference memory). The test is classed as in vivo. The text has this:
APP/PS1-vehicle: n=15; APP/PS1-67: n=6; APP/PS1-30a: n=10; WT-vehicle: n=15; WT-67=5; WT-30a: n=8, APP/PS1-33: n=11; WT-33: n=8, APP/PS1-50: n=10; WT-50: n=8. P<0.05 in all transgenic groups treated with compound compared to their respective vehicle-treated transgenics.
APP/PS1-vehicle: n=17; APP/PS1-67: n=9; APP/PS1-30a: n=10; WT-vehicle: n=18; WT-67=9; WT-30a: n=9, APP/PS1-33: n=10; WT-33: n=9, APP/PS1-50: n=11; WT-50: n=9.
The ability of compounds to rescue the defects in associative and reference memory in 3 month old APP/PS1 animals was assessed. Capability of ameliorating the defects in contextual fear memory was tested via i.p. administration (FIG. 12). In the 2-day RAWM test, daily injections of the 67, 30a, 33 and 50 from the 2nd month of age were beneficial against the loss of contextual fear memory and reference memory.
Impact of chronic treatment on against memory loss in older APP/PS1 mice (7 months of age) with a more severe plaque load was also investigated. Compounds 67, 33 and 50 were beneficial against memory impairment following chronic administration (FIG. 13).
The ability of a prodrug to rescue the defects in associative and reference memory in 3 month old APP/PS1 animals was assessed. […] Thus, the esterification seems to improve PK but it spoils PD parameters. Compound 89 ameliorates both LTP and memory in 3 month old APP/PS1 mice (FIG. 15). Daily treatment with 89 from the age of 2 months until 3 months ameliorated the defect in LTP (A) contextual fear memory (B) and reference memory (C) in APP/PS1 mice. n=10 for all groups. P<0.05 in transgenics treated with compound compared to their respective vehicle-treated transgenics.

The mark [5] stands for this setting: ki/Ki calculated relative to E-64.
Setting [6] is: mean ± S.D. of triplicate experiments.
[7] abbreviates: >1: inhibition not quantifiable at 1 μM.
The mark [8] stands for this setting: APP/PS1 mice, daily treatment from 2 until 7 months.

As for `C#Cc1ccc(-c2csc(NC(=O)[C@H](Cc3cscn3)NC(=O)[C@H]3O[C@@H]3C(=O)O)n2)cc1` [Compound 34, (2S,3S)-3-((S)-1-(4-(4-ethynylphenyl)thiazol-2-ylamino)-1-oxo-3-(thiazol-4-yl)propan-2-ylcarbamoyl)oxirane-2-carboxylic acid], the “Relative Selectivity” value in test [1] (Cal1 over papain, ki/Ki relative to E-64 set at 1.0) is reported as 3.3. The Ki in test [1] (apparent equilibrium constant, full length Cal1, read-out: K1 Calpain1) worked out at 3500 nM; on papain (apparent equilibrium constant, read-out: K1 Papain), 9700 nM. For the same compound, the “ki Calpain1” value in test [1] (inhibition rate, full length Cal1) came to 0.14 s⁻¹. In addition, the “relative selectivity for inhibition of Cal1 over papain (in words)” value in test [1] (ki/Ki as measure, compared with E-64) is “Cal1 selectivity”. In test [1] (setting [5]), the “rel Calpain1” value is listed as 1.3. Moreover, the “10^−4 × ki/Ki Calpain1” value in test [1] (setting [6]) turned out to be 3.89 ± 0.41. Further, the “ki Papain” value at papain (inhibition rate) amounted to 21.6 s⁻¹. On papain (setting [5]), the “rel Papain” value was 0.40. Also, the “10^−5 × ki/Ki Papain” value at papain (setting [6]) came to 22.3 ± 0.24. Besides, the IC50 against full-length human Cal1 [2] is 100 nM.
In the case of `CC(C)C[C@H](NC(=O)[C@H]1O[C@@H]1C(=O)O)C(=O)NCCCCNC(=O)CCCC[C@@H]1SC[C@@H]2NC(=O)N[C@@H]21` [Compound 27, (2S,3S)-3-((S)-4-methyl-1-oxo-1-(4-(5-((3aS,4S,6aR)-2-oxohexahydro-1H-thieno[3,4-d]imidazol-4-yl)pentanamido)butylamino)pentan-2-ylcarbamoyl)oxirane-2-carboxylic acid], the “covalent modification of Cal1 and CathB (anti-biotin immunoblotting)” value in the test on Cal1cat vs CathB is “covalently modify both Cal1 and CathB”. Further, it took 100 nM to reach half-maximal inhibition against full-length human Cal1 [2] (IC50). In addition, on full-length human Cal1 [3], the “Cal1 inhibition (in words)” value is “shown to be a Cal1 inhibitor” and the half-inhibitory concentration (IC50) amounted to 150 nM.
Compound `O=C(NCc1cn(-c2c(F)cccc2F)nn1)[C@H](Cc1cscn1)NC(=O)[C@H]1O[C@@H]1C(=O)O` [Compound 57, (2S,3S)-3-((S)-1-((1-(2,6-difluorophenyl)-1H-1,2,3-triazol-4-yl)methylamino)-1-oxo-3-(thiazol-4-yl)propan-2-ylcarbamoyl)oxirane-2-carboxylic acid] returned an IC50 at full-length human Cal1 [2] (setting [7]) greater than 1000 nM. Besides, on full-length human Cal1 [3], the “Cal1 inhibition (in words)” value was “relatively high IC50 values” and the IC50 was greater than 1000 nM.
On full-length human Cal1 [2], `O=C(NCc1cn(-c2ccc([N+](=O)[O-])cc2)nn1)[C@H](Cc1cscn1)NC(=O)[C@H]1O[C@@H]1C(=O)O` [Compound 56, (2S,3S)-3-((S)-1-((1-(4-nitrophenyl)-1H-1,2,3-triazol-4-yl)methylamino)-1-oxo-3-(thiazol-4-yl)propan-2-ylcarbamoyl)oxirane-2-carboxylic acid] registered an IC50 of 300 nM. The “Cal1 inhibition (in words)” value on full-length human Cal1 [3] was “potent activity”.
Turning to `O=C(Nc1nc2ccc(F)cc2s1)[C@H](Cc1c[nH]cn1)NC(=O)[C@@H]1O[C@H]1C(=O)O` [Compound 31b, (2R,3R)-3-((S)-1-(6-fluorobenzo[d]thiazol-2-ylamino)-3-(1H-imidazol-4-yl)-1-oxopropan-2-ylcarbamoyl)oxirane-2-carboxylic acid], the IC50 against full-length human Cal1 [2] (setting [7]) and on full-length human Cal1 [3] was greater than 1000 nM in each case.
For the compound `CC(C)C[C@H](NC(=O)[C@H]1O[C@@H]1C(=O)O)C(=O)Nc1c(F)cccc1F` [Compound 23a, (2S,3S)-3-((S)-1-(2,6-difluorophenylamino)-4-methyl-1-oxopentan-2-ylcarbamoyl)oxirane-2-carboxylic acid], the IC50 against full-length human Cal1 [2] is 100 nM; at full-length human Cal1 [3], 50 nM.
In the case of `O=C(NCc1cn(-c2ccc(Br)cc2)nn1)[C@H](Cc1cscn1)NC(=O)[C@H]1O[C@@H]1C(=O)O` [Compound 55, (2S,3S)-3-((S)-1-((1-(4-bromophenyl)-1H-1,2,3-triazol-4-yl)methylamino)-1-oxo-3-(thiazol-4-yl)propan-2-ylcarbamoyl)oxirane-2-carboxylic acid], the “potency for LTP rescue compared with E64” value in test [4] is listed as “did not surpass”. For the same compound, on full-length human Cal1 [3], the “Cal1 inhibition (in words)” value is listed as “potent activity” and the IC50 was found to be 40 nM.
With `O=C(O)[C@H]1O[C@@H]1C(=O)NC1(C(=O)NCCCCNS(=O)(=O)c2ccc(F)cc2)CCCCC1` [Compound 66], the “potency for LTP rescue compared with E64” value in test [4] is on record as “surpassed E64”. Also, on full-length human Cal1 [3], the IC50 is 1000 nM.
Consider `Cc1cc(C)c(-n2cc(CNC(=O)[C@H](Cc3cscn3)NC(=O)[C@H]3O[C@@H]3C(=O)O)nn2)c(C)c1` [Compound 58, (2S,3S)-3-((S)-1-((1-mesityl-1H-1,2,3-triazol-4-yl)methylamino)-1-oxo-3-(thiazol-4-yl)propan-2-ylcarbamoyl)oxirane-2-carboxylic acid], for which the IC50 against full-length human Cal1 [2] (setting [7]) is greater than 1000 nM. In addition, on full-length human Cal1 [3], the “Cal1 inhibition (in words)” value is “relatively high IC50 values” and the IC50 was greater than 1000 nM.
Take `CC(C)C[C@H](NC(=O)[C@H]1O[C@@H]1C(=O)O)C(=O)NCCCCNC(=O)CCCCC1CCSS1` (stereo partly drawn) [Compound 67]: the “potency for LTP rescue compared with E64” value in test [4] is recorded as “surpassed E64”. In addition, the reference memory result with APP/PS1 mice (3 month old APP/PS1 mice, 2-day RAWM, daily from 2 months) is recorded as “beneficial”; in the test with APP/PS1 mice (setting [8]), “not significant”. Also, the contextual fear memory result in the test on APP/PS1 mice (3 month old APP/PS1 mice, daily i.p. from 2 months) is reported as “beneficial”; with APP/PS1 mice (setting [8]), “ameliorated”. Further, the memory impairment entry with APP/PS1 mice (7 month old APP/PS1 mice, chronic administration) is “beneficial”. For the same compound, the IC50 on full-length human Cal1 [3] was 150 nM.
